# Laboratory results reported in ChEMBL document CHEMBL5143506, “Design, synthesis, and mechanism study of dimerized phenylalanine derivatives as novel HIV-1 capsid inhibitors” (Eur J Med Chem, 2021).
# How the values were obtained:
# in vitro [1] = conditions: human, liver microsomes
# [2] = test system: Human immunodeficiency virus 1; test: Antiviral activity against wild type HIV-1 IIIB infected in human MT4 cells assessed as protection against virus-induced cytopathic effect measured after 5 days by MTT assay; assay type: functional, organism-based; conditions: Human immunodeficiency virus 1, IIIB, MT4, 120 h
# MT4 = test: (§1) Cytotoxicity against human MT4 cells assessed as reduction in cell viability incubated for 5 days by MTT assay; conditions: mt4, 120 h
# [3] = test system: Human immunodeficiency virus 1; test: Antiviral activity against HIV1 NL4-3 Env-deficient pseudotype virus infected in human U87.CD4.CCR5.CXCR4 cells assessed by reduction in viral infection in early stage at 1 uM measured after 48 hrs by luciferase activity based single-round infection assay; assay type: functional; set-up: scale not given: the % may be the effect or the level left
# [4] = test system: Human immunodeficiency virus 1; test: Antiviral activity against HIV1 NL4-3 Env-deficient pseudotype virus infected in human U87.CD4.CCR5.CXCR4 cells assessed by reduction in viral infection in late stage at 1 uM measured after 48 hrs by luciferase activity based single-round infection assay; assay type: functional; set-up: scale not given: the % may be the effect or the level left
# [5] = human, microsomes, 3 h, 100 µM
# in vitro [6] = conditions: human, liver microsomes; remark: listed apart in the source
# Description: Metabolic stability in human liver microsome assessed as parent compound remaining at 100 uM measured after 60 mins in presence of NADPH by LC-MS/MS analysis
# in vitro [7] = conditions: human, liver microsomes; remark: listed apart in the source
# Description: Metabolic stability in human liver microsome assessed as parent compound remaining at 100 uM measured after 60 mins by LC-MS/MS analysis
# in vitro [8] = conditions: human, MT4 cells
# Description: Selectivity index, ratio of CC50 for cytotoxicity against human MT4 cells to EC50 for antiviral activity against HIV-1 IIIB infected in human MT4 cells
# [9] = as §1; conditions: MT4 cells
# [10] = human, microsomes, 3 h, 100 µM; remark: listed apart in the source
# [11] = test system: Human immunodeficiency virus 1; test: Antiviral activity against HIV1 NL4-3 Env-deficient pseudotype virus infected in human U87.CD4.CCR5.CXCR4 cells assessed by reduction in viral infection in early stage at 5 uM measured after 48 hrs by luciferase activity based single-round infection assay; assay type: functional; set-up: scale not given: the % may be the effect or the level left
# [12] = test system: Human immunodeficiency virus 1; test: Antiviral activity against HIV1 NL4-3 Env-deficient pseudotype virus infected in human U87.CD4.CCR5.CXCR4 cells assessed by reduction in viral infection in late stage at 5 uM measured after 48 hrs by luciferase activity based single-round infection assay; assay type: functional; set-up: scale not given: the % may be the effect or the level left
# in vitro [13] = conditions: human, MT4 cells; remark: listed apart in the source
# Description: Selectivity index, ratio of CC50 for cytotoxicity against human MT4 cells to EC50 for antiviral activity against HIV-1 ROD infected in human MT4 cells
Structure (SMILES),EC50 [2] [µM],CC50 (MT4) [µM],selectivity ratio (in vitro [8]),also measured
Cc1[nH]c2ccccc2c1CC(=O)N[C@@H](Cc1ccccc1)C(=O)N(C)c1ccccc1,–,–,–,"half-life at 3 h, 100 µM (in vitro [1]): 0.5 min"
COc1ccc(N(C)C(=O)[C@H](Cc2ccccc2)NC(=O)CN2CCN(S(=O)(=O)c3ccc(N)cc3)CC2=O)cc1,0.16,119,–,"Activity [3]: 7.1%; Activity [4]: 55%; CLH [5]: 395.6 µL/min/mg; remaining at 1 h, 100 µM (in vitro [6]): 0.1%; remaining at 1 h, 100 µM (in vitro [7]): 106%"
COc1ccc(N(C)C(=O)[C@H](Cc2ccccc2)NC(=O)CN2CCN(CC(=O)N[C@@H](Cc3ccccc3)C(=O)N(C)c3ccc(OC)cc3)C(=O)C2)cc1,≥ 3.67,15.7,–,–
COc1ccc(N(C)C(=O)[C@H](Cc2cc(F)cc(F)c2)NC(=O)CN2CCN(CC(=O)N[C@@H](Cc3ccccc3)C(=O)N(C)c3ccccc3)C(=O)C2)cc1,4.19,12.8,3.05,–
COc1ccc(N(C)C(=O)[C@H](Cc2ccccc2)NC(=O)CN2CC(=O)N(CC(=O)N[C@@H](Cc3ccccc3)C(=O)N(C)c3ccc(OC)cc3)CC2=O)cc1,3.59,–,6.82,CC50 at 120 h [9]: 24.5 µM
COc1ccc(N(C)C(=O)[C@H](Cc2cc(F)cc(F)c2)NC(=O)CN2CCN(CC(=O)N[C@@H](Cc3ccccc3)C(=O)N(C)c3ccc(OC)cc3)C(=O)C2)cc1,1.48,13.5,9.11,–
CN(C(=O)[C@H](Cc1ccccc1)NC(=O)CN1CCNCC1=O)c1ccccc1,247,–,–,CC50 at 120 h [9]: > 317 µM
COc1ccc(N(C)C(=O)[C@H](Cc2cc(F)cc(F)c2)NC(=O)CN2CCN(CC(=O)N[C@@H](Cc3ccccc3)C(=O)N(C)c3ccccc3)CC2=O)cc1,2.84,17.5,6.15,–
COc1ccc(N(C)C(=O)[C@H](Cc2cc(F)cc(F)c2)NC(=O)CN2CCNCC2=O)cc1,31.1,> 272,–,–
COc1ccc(N(C)C(=O)[C@H](Cc2ccccc2)NC(=O)CN2CCNCC2=O)cc1,89.2,> 294,–,–
COc1ccc(N(C)C(=O)[C@H](Cc2cc(F)cc(F)c2)NC(=O)CN2CC(=O)N(CC(=O)N[C@@H](Cc3cc(F)cc(F)c3)C(=O)N(C)c3ccc(OC)cc3)CC2=O)cc1,0.69,13.3,–,"t1/2 [10]: 1.6 min; CLH [5]: 843.9 µL/min/mg; remaining at 1 h, 100 µM (in vitro [6]): 0%; remaining at 1 h, 100 µM (in vitro [7]): 105%"
COc1ccc(N(C)C(=O)[C@H](Cc2ccccc2)NC(=O)CN2CCN(CC(=O)N[C@@H](Cc3ccccc3)C(=O)N(C)c3ccccc3)CC2=O)cc1,> 32.4,32.4,–,–
COc1ccc(N(C)C(=O)[C@H](Cc2cc(F)cc(F)c2)NC(=O)CN2CCN(CC(=O)N[C@@H](Cc3cc(F)cc(F)c3)C(=O)N(C)c3ccc(OC)cc3)C(=O)C2)cc1,–,–,–,Activity [11]: 86.6%; Activity [12]: 0.6%; t1/2 [10]: 0.8 min
COc1ccc(N(C)C(=O)[C@H](Cc2ccccc2)NC(=O)CN2CCN(CC(=O)N[C@@H](Cc3cc(F)cc(F)c3)C(=O)N(C)c3ccc(OC)cc3)C(=O)C2)cc1,2.52,15.5,6.14,–
CN(C(=O)[C@H](Cc1ccccc1)NC(=O)CN1CC(=O)N(CC(=O)N[C@@H](Cc2ccccc2)C(=O)N(C)c2ccccc2)CC1=O)c1ccccc1,4.24,71.8,16.9,selectivity ratio (in vitro [13]): 2.41
COc1ccc(N(C)C(=O)[C@H](Cc2ccccc2)NC(=O)CN2CCN(CC(=O)N[C@@H](Cc3ccccc3)C(=O)N(C)c3ccccc3)C(=O)C2)cc1,≥ 3.37,21.7,–,–
CN(C(=O)[C@H](Cc1ccccc1)NC(=O)CN1CCN(CC(=O)N[C@@H](Cc2ccccc2)C(=O)N(C)c2ccccc2)C(=O)C1)c1ccccc1,> 32.6,32.6,–,–
